Values of other authors in paper PMC4505863 (ACS Chemical Neuroscience, 2014).

System: mice
Details: cited from earlier work; for doses producing the head twitch in mice: 34−36

Compound: COc1cc(C[C@@H](C)N)c(OC)cc1C [R-DOM, R-(−)-2,5-dimethoxy-4-methylamphetamine]
- doses producing the head twitch in mice: ≤ 1 mg/kg

Compound: COc1cc(C[C@@H](C)N)c(OC)cc1Br [R-DOB, R-(−)-2,5-dimethoxy-4-bromoamphetamine]
- doses producing the head twitch in mice: ≤ 1 mg/kg

Compound: CN(C)CCc1c[nH]c2cccc(O)c12 [psilocin]
- doses producing the head twitch in mice: ≤ 1 mg/kg

Compound: CCCSc1cc(OC)c(CCN)cc1OC [Compound 2C-T-7, 2,5-dimethoxy-4-propylthiophenethylamine]
- doses producing the head twitch in mice: ≤ 1 mg/kg

Compound: COc1ccc2[nH]cc(CCN(C)C)c2c1 [Compound 5-MeO-DMT, 5-MeO-N,N-dimethyltryptamine]
- active dose range, head twitch (ref 36−38): 3 to 30 mg/kg
